Source: PubChem BioAssay (NCI)
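Following 48 hours of exposure in 96-well plates, responses at five concentrations were used to interpolate endpoints linearly. Abbreviation: GI50, concentration required for 50% inhibition of growth. TGI: concentration producing complete growth inhibition.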

How the values were obtained:
Experiment in all cases: inhibition of tumour cell growth, NCI panel, 48 h; in the data active = GI50 below about 0.43 µM; inactive = the rest
HL-60(TB) leukemia = system: HL-60(TB) leukemia
MCF7 breast = system: MCF7 breast
M14 melanoma = system: M14 melanoma
SF-268 CNS = system: SF-268 CNS
RPMI-8226 leukemia = system: RPMI-8226 leukemia
SF-539 CNS = system: SF-539 CNS
SW-620 colon = system: SW-620 colon
U251 CNS = system: U251 CNS
MDA-MB-231 breast = system: MDA-MB-231 breast
NCI-H23 lung = system: NCI-H23 lung
HCT-15 colon = system: HCT-15 colon
BT-549 breast = system: BT-549 breast
K-562 leukemia = system: K-562 leukemia
OVCAR-8 ovarian = system: OVCAR-8 ovarian
A549 NSCLC = system: A549 NSCLC
OVCAR-4 ovarian = system: OVCAR-4 ovarian
786-0 renal = system: 786-0 renal
SR leukemia = system: SR leukemia
MALME-3M melanoma = system: MALME-3M melanoma
LOX IMVI melanoma = system: LOX IMVI melanoma
UO-31 renal = system: UO-31 renal
NCI-H522 lung = system: NCI-H522 lung
SN12C renal = system: SN12C renal
HCC-2998 colon = system: HCC-2998 colon
SNB-75 CNS = system: SNB-75 CNS
EKVX NSCLC = system: EKVX NSCLC
A498 renal = system: A498 renal
HOP-62 NSCLC = system: HOP-62 NSCLC
OVCAR-5 ovarian = system: OVCAR-5 ovarian
UACC-62 melanoma = system: UACC-62 melanoma
UACC-257 melanoma = system: UACC-257 melanoma
COLO 205 colon = system: COLO 205 colon
IGROV1 ovarian = system: IGROV1 ovarian
NCI/ADR-RES ovarian = system: NCI/ADR-RES ovarian
HT29 colon = system: HT29 colon
HCT-116 colon = system: HCT-116 colon
SK-OV-3 ovarian = system: SK-OV-3 ovarian
SK-MEL-5 melanoma = system: SK-MEL-5 melanoma
RXF 393 renal = system: RXF 393 renal
NCI-H460 lung = system: NCI-H460 lung
ACHN renal = system: ACHN renal
KM12 colon = system: KM12 colon
SK-MEL-28 melanoma = system: SK-MEL-28 melanoma
MOLT-4 leukemia = system: MOLT-4 leukemia
SNB-19 CNS = system: SNB-19 CNS
CAKI-1 renal = system: CAKI-1 renal
DU-145 prostate = system: DU-145 prostate
NCI-H226 lung = system: NCI-H226 lung
TK-10 renal = system: TK-10 renal
SK-MEL-2 melanoma = system: SK-MEL-2 melanoma
MDA-MB-435 = system: MDA-MB-435
PC-3 prostate = system: PC-3 prostate
CCRF-CEM leukemia = system: CCRF-CEM leukemia
SF-295 CNS = system: SF-295 CNS
HOP-92 NSCLC = system: HOP-92 NSCLC
OVCAR-3 ovarian = system: OVCAR-3 ovarian

Cn1ccc(=O)c2c(O)c3ccccc3c(O)c21
inactive: GI50 (HL-60(TB) leukemia) > 100 µM | GI50 (MCF7 breast) > 100 µM | GI50 (M14 melanoma) 97.5 µM | GI50 (SF-268 CNS) > 100 µM | GI50 (RPMI-8226 leukemia) 34.5 µM | GI50 (SF-539 CNS) > 82.3 µM | GI50 (SW-620 colon) 59.9 µM | GI50 (U251 CNS) > 100 µM | GI50 (MDA-MB-231 breast) 99.1 µM | GI50 (NCI-H23 lung) > 100 µM | GI50 (HCT-15 colon) > 66.1 µM | GI50 (BT-549 breast) > 100 µM | GI50 (K-562 leukemia) > 100 µM | GI50 (OVCAR-8 ovarian) > 58.6 µM | GI50 (A549 NSCLC) > 93.1 µM | GI50 (OVCAR-4 ovarian) > 100 µM | GI50 (786-0 renal) > 100 µM | GI50 (SR leukemia) 44.5 µM | GI50 (MALME-3M melanoma) > 100 µM | GI50 (LOX IMVI melanoma) 52.7 µM | GI50 (UO-31 renal) > 100 µM | GI50 (NCI-H522 lung) > 94 µM | GI50 (SN12C renal) 78.1 µM | GI50 (HCC-2998 colon) 20.3 µM | GI50 (SNB-75 CNS) > 100 µM | GI50 (EKVX NSCLC) > 100 µM | GI50 (A498 renal) 20.2 µM | GI50 (HOP-62 NSCLC) 64.5 µM | GI50 (OVCAR-5 ovarian) > 100 µM | GI50 (UACC-62 melanoma) > 88.6 µM | GI50 (UACC-257 melanoma) > 100 µM | GI50 (COLO 205 colon) 56.9 µM | GI50 (IGROV1 ovarian) > 100 µM | GI50 (NCI/ADR-RES ovarian) > 100 µM | GI50 (HT29 colon) 99.9 µM | GI50 (HCT-116 colon) 42.2 µM | GI50 (SK-OV-3 ovarian) > 94.2 µM | GI50 (SK-MEL-5 melanoma) 18.3 µM | GI50 (RXF 393 renal) > 100 µM | GI50 (NCI-H460 lung) > 69 µM | GI50 (ACHN renal) 35.3 µM | GI50 (KM12 colon) > 70.1 µM | GI50 (SK-MEL-28 melanoma) > 100 µM | GI50 (MOLT-4 leukemia) 80.9 µM | GI50 (SNB-19 CNS) > 40.2 µM | GI50 (CAKI-1 renal) 57 µM | GI50 (DU-145 prostate) > 100 µM | GI50 (NCI-H226 lung) > 44.6 µM | GI50 (TK-10 renal) > 94.9 µM | GI50 (SK-MEL-2 melanoma) > 100 µM | GI50 (MDA-MB-435) > 100 µM | GI50 (PC-3 prostate) > 26.6 µM | GI50 (SF-295 CNS) 64.3 µM | GI50 (HOP-92 NSCLC) > 100 µM | GI50 (OVCAR-3 ovarian) > 100 µM
> 52.4 µM: TGI (SK-MEL-5 melanoma)
> 100 µM: TGI (HL-60(TB) leukemia) | TGI (MCF7 breast) | TGI (M14 melanoma) | TGI (SF-268 CNS) | TGI (RPMI-8226 leukemia) | TGI (SF-539 CNS) | TGI (SW-620 colon) | TGI (U251 CNS) | TGI (MDA-MB-231 breast) | TGI (NCI-H23 lung) | TGI (HCT-15 colon) | TGI (BT-549 breast) | TGI (K-562 leukemia) | TGI (OVCAR-8 ovarian) | TGI (A549 NSCLC) | TGI (OVCAR-4 ovarian) | TGI (786-0 renal) | TGI (SR leukemia) | TGI (MALME-3M melanoma) | TGI (LOX IMVI melanoma) | TGI (UO-31 renal) | TGI (NCI-H522 lung) | TGI (SN12C renal) | TGI (HCC-2998 colon) | TGI (SNB-75 CNS) | TGI (EKVX NSCLC) | TGI (A498 renal) | TGI (HOP-62 NSCLC) | TGI (OVCAR-5 ovarian) | TGI (UACC-62 melanoma) | TGI (UACC-257 melanoma) | TGI (COLO 205 colon) | TGI (IGROV1 ovarian) | TGI (NCI/ADR-RES ovarian) | TGI (HT29 colon) | TGI (HCT-116 colon) | TGI (SK-OV-3 ovarian) | TGI (RXF 393 renal) | TGI (NCI-H460 lung) | TGI (ACHN renal) | TGI (KM12 colon) | TGI (SK-MEL-28 melanoma) | TGI (MOLT-4 leukemia) | TGI (SNB-19 CNS) | TGI (CAKI-1 renal) | TGI (DU-145 prostate) | TGI (NCI-H226 lung) | TGI (TK-10 renal) | TGI (SK-MEL-2 melanoma) | TGI (MDA-MB-435) | TGI (PC-3 prostate) | TGI (CCRF-CEM leukemia) | TGI (SF-295 CNS) | TGI (HOP-92 NSCLC) | TGI (OVCAR-3 ovarian)
